Reference: the supplement of paper PMC9663587

Tests used:
Assay in all cases: area over the GR curve, 72 h; higher = more effect;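 note: Dye Drop or Deep Dye Drop imaging of viable cells in 384-well plates (Hoechst nuclei, LIVE/DEAD dye), nine half-log doses, GR normalized to DMSO controls and time-zero plates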
HCC1419 = system: HCC1419
184A1 = system: 184A1
T47D = system: T47D
SKBR3 = system: SKBR3
SUM190PT = system: SUM190PT
SUM1315 = system: SUM1315
HCC1806 = system: HCC1806
CAL120 = system: CAL120
MDAMB231 = system: MDAMB231
SUM185PE = system: SUM185PE
HS578T = system: HS578T

SMILES | area over the GR curve (HCC1419) | area over the GR curve (184A1) | area over the GR curve (T47D) | area over the GR curve (SKBR3) | area over the GR curve (SUM190PT) | area over the GR curve (SUM1315) | area over the GR curve (HCC1806) | area over the GR curve (CAL120) | area over the GR curve (MDAMB231) | area over the GR curve (SUM185PE) | area over the GR curve (HS578T) | area over the GR curve (HCC1419; main component drawn) | area over the GR curve (T47D; main component drawn) | area over the GR curve (SKBR3; main component drawn) | area over the GR curve (SUM1315; main component drawn) | area over the GR curve (HCC1806; main component drawn) | area over the GR curve (CAL120; main component drawn) | area over the GR curve (MDAMB231; main component drawn) | area over the GR curve (HS578T; main component drawn)
Cc1nc(NC(=O)N2CCC[C@H]2C(N)=O)sc1-c1ccnc(C(C)(C)C(F)(F)F)c1 [Alpelisib/BYL719] (max 10 µM) | 0.356 GR | 0.136 GR | 0.455 GR | 0.379 GR | -0.103 GR | 0.116 GR | 0.0386 GR | 0.0922 GR | 0.0895 GR | 0.36 GR | 0.0905 GR |  |  |  |  |  |  |  | 
CN(C)C/C=C/C(=O)Nc1ccc(O[C@@H]2CCC[C@@H](Nc3ncc(Cl)c(-c4c[nH]c5ccccc45)n3)C2)cc1 [BSJ-01-175] (max 10 µM) | 0.39 GR | 1.15 GR | 0.537 GR | 1.04 GR | 1.16 GR | 0.509 GR | 0.581 GR | 0.667 GR | 0.991 GR | 0.597 GR | 1.07 GR |  |  |  |  |  |  |  | 
CC(=O)c1c(C)c2cnc(Nc3ccc(N4CCN(CCOCCOCCOCCNC(=O)COc5cccc6c5C(=O)N(C5CCC(=O)NC5=O)C6=O)CC4)cn3)nc2n(C2CCCC2)c1=O (stereo not drawn) [BSJ-03-123] (max 10 µM) | 0.415 GR | 0.708 GR | 0.746 GR | 0.338 GR | 0.568 GR | 0.312 GR | 0.21 GR | 0.16 GR | 0.353 GR | 0.156 GR | 0.298 GR |  |  |  |  |  |  |  | 
CC(C)Nc1cc(-c2c[nH]c(C(=O)N[C@H](CO)c3cccc(Cl)c3)c2)c(Cl)cn1 [BVD523] (max 10 µM) | 0.0554 GR | 0.704 GR | 0.185 GR | 0.124 GR | 0.218 GR | 0.0786 GR | 0.0314 GR | 0.108 GR | 0.232 GR | -0.0633 GR | 0.316 GR |  |  |  |  |  |  |  | 
Cc1c(N)nc([C@H](CC(N)=O)NC[C@H](N)C(N)=O)nc1C(=O)N[C@H](C(=O)N[C@H](C)[C@@H](O)[C@H](C)C(=O)N[C@H](C(=O)NCCc1nc(-c2nc(C(=O)NCCC[S+](C)C)cs2)cs1)[C@@H](C)O)[C@@H](OC1OC(CO)C(O)C(O)C1OC1OC(CO)C(O)C(OC(N)=O)C1O)c1cnc[nH]1 (stereo partly drawn) [Bleomycin] (max 10 µM) |  |  |  |  |  |  |  |  |  |  |  | 0.141 GR | 0.462 GR | 0.259 GR | 0.41 GR | 0.117 GR | 0.232 GR | 0.132 GR | 0.446 GR
Nc1cc(C(F)(F)F)c(-c2cc(N3CCOCC3)nc(N3CCOCC3)n2)cn1 [Buparlisib/NVP-BKM120] (max 10 µM) | 0.45 GR | 0.268 GR | 0.482 GR | 0.585 GR | 0.253 GR | 0.438 GR | 0.305 GR | 0.339 GR | 0.275 GR | 0.299 GR | 0.376 GR |  |  |  |  |  |  |  | 
COc1cc2nccc(Oc3ccc(NC(=O)C4(C(=O)Nc5ccc(F)cc5)CC4)cc3)c2cc1OC [Cabozantinib] (max 10 µM) | -0.0617 GR | 0.0128 GR | 0.0578 GR | -0.0595 GR | 0.138 GR | 0.105 GR | -0.021 GR | 0.0847 GR | 0.141 GR | -0.023 GR | 0.134 GR |  |  |  |  |  |  |  | 
COc1cc2c(Oc3ccc4[nH]c(C)cc4c3F)ncnc2cc1OCCCN1CCCC1 [Cediranib/AZD2171] (max 10 µM) | 0.0482 GR | 0.0594 GR | 0.122 GR | 0.063 GR | -0.0464 GR | 0.243 GR | 0.0606 GR | 0.299 GR | 0.116 GR | 0.582 GR | 0.394 GR |  |  |  |  |  |  |  | 
Cc1cc(Nc2ncc(Cl)c(Nc3ccccc3S(=O)(=O)C(C)C)n2)c(OC(C)C)cc1C1CCNCC1 [Ceritinib/LDK378] (max 10 µM) | 0.206 GR | 0.347 GR | 0.312 GR | 0.301 GR | 0.242 GR | 0.413 GR | 0.156 GR | 0.337 GR | 0.344 GR | 0.261 GR | 0.305 GR |  |  |  |  |  |  |  | 
N.N.[Cl][Pt][Cl] [Cisplatin] (max 10 µM) | 0.223 GR |  | 0.214 GR | 0.0978 GR |  | 0.296 GR | 0.317 GR | 0.182 GR | 0.15 GR |  | 0.235 GR |  |  |  |  |  |  |  | 
Cc1nc(Nc2ncc(C(=O)Nc3c(C)cccc3Cl)s2)cc(N2CCN(CCO)CC2)n1 [Dasatinib] (max 10 µM) | 0.311 GR | 0.264 GR | 0.193 GR | -0.0183 GR | 0.32 GR | 0.74 GR | 0.63 GR | 0.519 GR | 0.647 GR | 0.455 GR | 0.71 GR |  |  |  |  |  |  |  | 
COc1cccc2c1C(=O)c1c(O)c3c(c(O)c1C2=O)C[C@@](O)(C(=O)CO)C[C@@H]3O[C@H]1C[C@H](N)[C@H](O)[C@H](C)O1 [Doxorubicin] (max 3.162 µM) | 0.59 GR | 0.706 GR | 0.919 GR | 0.942 GR | 0.403 GR | 0.513 GR | 0.628 GR | 0.697 GR | 0.818 GR | 0.0881 GR | 0.801 GR |  |  |  |  |  |  |  | 
CO[C@H]1C[C@@H]2CC[C@@H](C)[C@@](O)(O2)C(=O)C(=O)N2CCCC[C@H]2C(=O)O[C@H]([C@H](C)C[C@@H]2CC[C@@H](OCCO)[C@H](OC)C2)CC(=O)[C@H](C)/C=C(\C)[C@@H](O)[C@@H](OC)C(=O)[C@H](C)C[C@H](C)/C=C/C=C/C=C/1C [Everolimus] (max 10 µM) | 0.724 GR | 0.452 GR | 0.616 GR | 0.794 GR | 0.571 GR | 0.454 GR | 0.197 GR | 0.416 GR | 0.225 GR | 0.2 GR | 0.527 GR |  |  |  |  |  |  |  | 
CCC(=O)Nc1ccc(C(=O)Nc2ccc(Nc3ncc4c(n3)N(C)c3ccc(C)cc3C(=O)N4C)cc2)cc1 [FMF-03-145-1] | 0.261 GR | 1 GR | 0.979 GR | 0.464 GR | 0.94 GR | 0.539 GR | 1.08 GR | 0.34 GR | 0.947 GR | 0.384 GR | 1.07 GR |  |  |  |  |  |  |  | 
COc1cc(N2CCN(C)CC2)ccc1Nc1ncc2c(n1)N(C)c1ccccc1C(=O)N2CC(F)(F)F [FMF-03-146-1] | 0.0393 GR | 0.0018 GR | 0.0652 GR | 0.0465 GR | 0.101 GR | 0.0401 GR | 0.0215 GR | -0.0113 GR | 0.0225 GR | 0.0495 GR | 0.0103 GR |  |  |  |  |  |  |  | 
CN1CC[C@H](c2c(O)cc(O)c3c(=O)cc(-c4ccccc4Cl)oc23)[C@H](O)C1 [Flavopiridol] (max 1 µM) | 0.225 GR | 0.418 GR | 0.274 GR | 0.342 GR | 0.348 GR | 0.416 GR | 0.257 GR | 0.229 GR | 0.286 GR | 0.308 GR | 0.254 GR |  |  |  |  |  |  |  | 
CC[C@@]1(O)C(=O)OCc2c1cc1n(c2=O)Cc2cc3c(CN(C)C)c(O)ccc3nc2-1 [Topotecan] (max 10 µM) | 0.99 GR |  | 0.959 GR | 0.794 GR |  | 0.769 GR | 1.07 GR | 0.913 GR | 0.704 GR |  | 1.02 GR |  |  |  |  |  |  |  | 
